≈ marks a conversion by molar mass, not a printed value.
Assay: Thermodynamic solubility of the compound in monobasic potassium phosphate buffer at pH 7.4 after 24 hrs by LC-MS/MS analysis
Assay type: physicochemical
Conditions: read-out: Therm_solubility

solubility thermodynamic at 24 h: 7 µM (≈ 3.87 µg/mL)
Structure (SMILES): CN(c1ccc(Cl)cc1)c1ccc(C(=O)c2ccc(C(=O)C3(c4ccccc4)CCCCC3)c(C(=O)O)c2)nc1

Source: ChEMBL document CHEMBL3880387, “Bis aromatic compounds for use as LTC4 synthase inhibitors” (2013)
